The supplement of paper PMC10307832

Key:
Test in all cases: relative viability (nuclei count vs DMSO), 5 days (fraction); higher = more cells survive
[1] = system: NCI-H596
Method in brief: (§1)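 Relative viability divides the nuclei count in treated wells by that in vehicle wells. Lung cancer cell lines were seeded in 1536-well plates, dosed by pin tool the next day, and fixed and stained after 5 days in one step with final 0.05% Triton X-100, 1% formaldehyde and 1 ug/ml Hoechst. Dosing was a single drug or a fixed anchor-drug dose plus five library-drug doses (not always all listed) in √10 steps, and values are medians of duplicate plates imaged at 4×.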

[2] = system: PC-14
Method in brief: as §1

[3] = system: NCI-H1915
Method in brief: as §1

[4] = system: NCI-H520
Method in brief: as §1

[5] = system: NCI-H460
Method in brief: as §1

[6] = system: LXF-289
Method in brief: as §1

[7] = system: NCI-H1563
Method in brief: as §1

[8] = system: NCI-H441
Method in brief: as §1

[9] = system: NCI-H1792
Method in brief: as §1

[10] = system: NCI-H3122
Method in brief: as §1

[11] = system: SW 900
Method in brief: as §1

[12] = system: NCI-H322M
Method in brief: as §1

[13] = system: RERF-LC-KJ
Method in brief: as §1

[14] = system: NCI-H522
Method in brief: as §1

[15] = system: NCI-H1355
Method in brief: as §1

[16] = system: NCI-H661
Method in brief: as §1

[17] = system: SK-MES-1
Method in brief: as §1

[18] = system: NCI-H2347
Method in brief: as §1

[19] = system: LCLC-103H
Method in brief: as §1

[20] = system: NCI-H1755
Method in brief: as §1

[21] = system: NCI-H1651
Method in brief: as §1

CC(=O)O[C@@]12CO[C@@H]1C[C@H](O)[C@@]1(C)C(=O)[C@H](O)C3=C(C)[C@@H](OC(=O)[C@H](O)[C@@H](NC(=O)OC(C)(C)C)c4ccccc4)C[C@@](O)([C@@H](OC(=O)c4ccccc4)[C@H]21)C3(C)C [Docetaxel] + Nc1nc2[nH]cc(CCc3ccc(C(=O)N[C@@H](CCC(=O)O)C(=O)O)cc3)c2c(=O)[nH]1 [Pemetrexed] (partner 0.2 µM)
relative viability ([1]; first compound 0.0002 µM): 0.486 | relative viability ([1]; first compound 0.000632 µM): 0.568 | relative viability ([1]; first compound 0.002 µM): 0.675 | relative viability ([1]; first compound 0.006325 µM): 0.441 | relative viability ([1]; first compound 0.02 µM): 0.369 | relative viability ([2]; first compound 0.0002 µM): 0.13 | relative viability ([2]; first compound 0.000632 µM): 0.144 | relative viability ([2]; first compound 0.002 µM): 0.129 | relative viability ([2]; first compound 0.006325 µM): 0.0511 | relative viability ([2]; first compound 0.02 µM): 0.0414 | relative viability ([3]; first compound 0.0002 µM): 0.562 | relative viability ([3]; first compound 0.000632 µM): 0.47 | relative viability ([3]; first compound 0.002 µM): 0.327 | relative viability ([3]; first compound 0.006325 µM): 0.152 | relative viability ([3]; first compound 0.02 µM): 0.108 | relative viability ([4]; first compound 0.0002 µM): 0.691 | relative viability ([4]; first compound 0.000632 µM): 0.471 | relative viability ([4]; first compound 0.002 µM): 0.316 | relative viability ([4]; first compound 0.006325 µM): 0.207 | relative viability ([4]; first compound 0.02 µM): 0.159 | relative viability ([5]; first compound 0.0002 µM): 0.0551 | relative viability ([5]; first compound 0.000632 µM): 0.0652 | relative viability ([5]; first compound 0.002 µM): 0.0375 | relative viability ([5]; first compound 0.006325 µM): 0.0299 | relative viability ([5]; first compound 0.02 µM): 0.021 | relative viability ([6]; first compound 0.0002 µM): 0.875 | relative viability ([6]; first compound 0.000632 µM): 0.8 | relative viability ([6]; first compound 0.002 µM): 0.363 | relative viability ([6]; first compound 0.006325 µM): 0.116 | relative viability ([6]; first compound 0.02 µM): 0.0871 | relative viability ([7]; first compound 0.0002 µM): 0.701 | relative viability ([7]; first compound 0.000632 µM): 0.843 | relative viability ([7]; first compound 0.002 µM): 0.69 | relative viability ([7]; first compound 0.006325 µM): 0.608 | relative viability ([7]; first compound 0.02 µM): 0.374 | relative viability ([8]; first compound 0.000632 µM): 0.253 | relative viability ([8]; first compound 0.002 µM): 0.206 | relative viability ([8]; first compound 0.006325 µM): 0.198 | relative viability ([9]; first compound 0.0002 µM): 0.764 | relative viability ([9]; first compound 0.000632 µM): 0.533 | relative viability ([9]; first compound 0.002 µM): 0.223 | relative viability ([9]; first compound 0.006325 µM): 0.105 | relative viability ([9]; first compound 0.02 µM): 0.0705 | relative viability ([10]; first compound 0.0002 µM): 0.185 | relative viability ([10]; first compound 0.000632 µM): 0.196 | relative viability ([10]; first compound 0.002 µM): 0.193 | relative viability ([10]; first compound 0.006325 µM): 0.14 | relative viability ([10]; first compound 0.02 µM): 0.111 | relative viability ([11]; first compound 0.0002 µM): 0.462 | relative viability ([11]; first compound 0.000632 µM): 0.332 | relative viability ([11]; first compound 0.002 µM): 0.303 | relative viability ([11]; first compound 0.006325 µM): 0.281 | relative viability ([11]; first compound 0.02 µM): 0.24 | relative viability ([12]; first compound 0.0002 µM): 0.552 | relative viability ([12]; first compound 0.000632 µM): 0.602 | relative viability ([12]; first compound 0.002 µM): 0.689 | relative viability ([12]; first compound 0.006325 µM): 0.642 | relative viability ([12]; first compound 0.02 µM): 0.486 | relative viability ([13]; first compound 0.0002 µM): 0.375 | relative viability ([13]; first compound 0.000632 µM): 0.342 | relative viability ([13]; first compound 0.002 µM): 0.297 | relative viability ([13]; first compound 0.006325 µM): 0.173 | relative viability ([13]; first compound 0.02 µM): 0.157 | relative viability ([14]; first compound 0.0002 µM): 1.06 | relative viability ([14]; first compound 0.000632 µM): 0.814 | relative viability ([14]; first compound 0.002 µM): 0.737 | relative viability ([14]; first compound 0.006325 µM): 0.636 | relative viability ([14]; first compound 0.02 µM): 0.355 | relative viability ([15]; first compound 0.0002 µM): 1.09 | relative viability ([15]; first compound 0.000632 µM): 0.958 | relative viability ([15]; first compound 0.002 µM): 0.789 | relative viability ([15]; first compound 0.006325 µM): 0.309 | relative viability ([15]; first compound 0.02 µM): 0.198 | relative viability ([16]; first compound 0.0002 µM): 0.947 | relative viability ([16]; first compound 0.000632 µM): 0.944 | relative viability ([16]; first compound 0.002 µM): 0.799 | relative viability ([16]; first compound 0.006325 µM): 0.572 | relative viability ([16]; first compound 0.02 µM): 0.366 | relative viability ([17]; first compound 0.0002 µM): 0.971 | relative viability ([17]; first compound 0.000632 µM): 0.907 | relative viability ([17]; first compound 0.002 µM): 0.499 | relative viability ([17]; first compound 0.006325 µM): 0.341 | relative viability ([17]; first compound 0.02 µM): 0.197 | relative viability ([18]; first compound 0.0002 µM): 0.422 | relative viability ([18]; first compound 0.000632 µM): 0.446 | relative viability ([18]; first compound 0.002 µM): 0.419 | relative viability ([18]; first compound 0.006325 µM): 0.429 | relative viability ([18]; first compound 0.02 µM): 0.357 | relative viability ([19]; first compound 0.0002 µM): 0.495 | relative viability ([19]; first compound 0.000632 µM): 0.54 | relative viability ([19]; first compound 0.002 µM): 0.515 | relative viability ([19]; first compound 0.006325 µM): 0.6 | relative viability ([19]; first compound 0.02 µM): 0.492 | relative viability ([20]; first compound 0.0002 µM): 0.545 | relative viability ([20]; first compound 0.000632 µM): 0.438 | relative viability ([20]; first compound 0.002 µM): 0.453 | relative viability ([20]; first compound 0.006325 µM): 0.367 | relative viability ([20]; first compound 0.02 µM): 0.332 | relative viability ([21]; first compound 0.0002 µM): 0.443 | relative viability ([21]; first compound 0.000632 µM): 0.593 | relative viability ([21]; first compound 0.002 µM): 0.447 | relative viability ([21]; first compound 0.006325 µM): 0.175
